Values quoted from earlier work, collected in patent publication US20070297991A1, “NEURAL CONDUIT AGENT DIS[…] SMOKING CESSATION AND OTHER APPLICATIONS” (MINU, L.L.C., priority 2006, published 2007).

Conditions: in vivo

CN1CCCC1c1cccnc1 (stereo not shown) [nicotine]
plasma half-life: approximately two
